This is an account of results in patent US9907800B2, “Kinase inhibitors and method of treating cancer” (University Health Network, priority 2010, dated 2018).

Where a name gives a salt, the structure may show the parent alone.

The target in one assay is Aurora B (Homo sapiens (Human), UniProt Q96GD4). Nature of the assay: Aurora B inhibition assay (Z-Lyte). Type of assay: biochemical. The following applies: read-out: Aurora B IC50 Ranges.
A further assay has as its target human PLK4 (Homo sapiens (Human), UniProt O00444). Nature of the assay: PLK4 inhibition assay (indirect ELISA). Conditions: read-out: PLK4 IC50 Ranges. It is filed as biochemical.

human PLK4, sequence (O00444 1-391): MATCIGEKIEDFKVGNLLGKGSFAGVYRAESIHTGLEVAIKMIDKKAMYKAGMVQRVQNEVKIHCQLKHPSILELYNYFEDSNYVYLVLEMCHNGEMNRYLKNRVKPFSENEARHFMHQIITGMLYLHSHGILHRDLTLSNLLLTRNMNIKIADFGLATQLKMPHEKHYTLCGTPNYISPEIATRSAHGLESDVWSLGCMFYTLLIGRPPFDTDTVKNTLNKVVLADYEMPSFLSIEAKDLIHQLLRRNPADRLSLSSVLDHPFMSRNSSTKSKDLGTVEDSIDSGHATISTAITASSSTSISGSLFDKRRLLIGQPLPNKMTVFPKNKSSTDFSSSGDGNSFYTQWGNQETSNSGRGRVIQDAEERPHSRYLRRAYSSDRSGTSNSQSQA
Aurora B, sequence (Q96GD4 whole entry): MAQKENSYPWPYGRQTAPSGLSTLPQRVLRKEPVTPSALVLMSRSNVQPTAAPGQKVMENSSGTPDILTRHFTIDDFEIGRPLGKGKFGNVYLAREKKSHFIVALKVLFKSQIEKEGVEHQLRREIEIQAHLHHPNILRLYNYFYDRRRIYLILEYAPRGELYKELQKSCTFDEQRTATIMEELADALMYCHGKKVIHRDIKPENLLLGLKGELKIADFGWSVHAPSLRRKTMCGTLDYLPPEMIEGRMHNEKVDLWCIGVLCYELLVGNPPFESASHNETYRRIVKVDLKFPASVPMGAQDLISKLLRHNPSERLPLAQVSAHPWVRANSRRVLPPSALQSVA
Description for Aurora B: Aurora B inhibition was determined using the Z-Lyte assay kit from Invitrogen. […] The % inhibition values were determined according to the manufacturer's directions and IC50 values were obtained using a non-linear 4 point logistic curve fit (XLfit4, IDBS)

In the case of `CCN1CCN(c2ccc(/C=C/c3n[nH]c4cc([C@@H]5C[C@@]56C(=O)Nc5ccc(OC)cc56)ccc34)cc2)CC1` [Example A187, (1R,2S)-(E)-2-(3-(4-(4-ethylpiperazin-1-yl)styryl)-1H-indazol-6-yl)-5′-methoxyspiro[cyclopropane-1,3′-indolin]-2′-one 2,2,2-trifluoroacetate], the IC50 at Aurora B and on human PLK4 was under 100 nM throughout.

For the compound `O=C1Nc2ccccc2[C@]12C[C@H]2c1ccc2c(/C=C/c3ccc(CCN4CCOCC4)cc3)n[nH]c2c1` [Example A205, (1R,2S)-(E)-2-(3-(4-(2-morpholinoethyl)styryl)-1H-indazol-6-yl)spiro[cyclopropane-1,3′-indolin]-2′-one 2,2,2-trifluoroacetate], the IC50 on Aurora B and at human PLK4 was under 100 nM in each case.

As for `CN1C(=O)[C@@]2(C[C@H]2c2ccc3c(/C=C/c4ccc(CN5CCOCC5)cc4)n[nH]c3c2)c2ccccc21` (relative stereo) [Example A87, (1R*,2S*)-(E)-1′-methyl-2-(3-(4-(morpholinomethyl)styryl)-1H-indazol-6-yl)spiro[cyclopropane-1,3′-indolin]-2′-one 2,2,2-trifluoroacetate], the IC50 at Aurora B and at human PLK4 was under 100 nM in each case.

Take `CN1C(=O)[C@@]2(C[C@H]2c2ccc3c(/C=C/c4ccc(CN5CCCCC5)cc4)n[nH]c3c2)c2ccccc21` (relative stereo) [Example A95, (1R*,2S*)-(E)-1′-methyl-2-(3-(4-(piperidin-1-ylmethyl)styryl)-1H-indazol-6-yl)spiro[cyclopropane-1,3′-indolin]-2′-one 2,2,2-trifluoroacetate]: the IC50 on Aurora B and on human PLK4 was under 100 nM each time.

Regarding `COc1ccc2c(c1)[C@]1(C[C@H]1c1ccc3c(-c4ccc5nccn5c4)n[nH]c3c1)C(=O)N2` [Example A107, (1R,2S)-2-(3-(imidazo[1,2-a]pyridin-6-yl)-1H-indazol-6-yl)-5′-methoxyspiro[cyclopropane-1,3′-indolin]-2′-one 2,2,2-trifluoroacetate], the IC50 on Aurora B and at human PLK4 was under 100 nM throughout.

Consider `COc1ccc2c(c1)[C@]1(C[C@H]1c1ccc3c(/C=C/c4ccc(CC5CCN(C)CC5)cc4)n[nH]c3c1)C(=O)N2` [Example A82, (1R,2S)-(E)-5′-methoxy-2-(3-(4-((1-methylpiperidin-4-yl)methyl)styryl)-1H-indazol-6-yl)spiro[cyclopropane-1,3′-indolin]-2′-one 2,2,2-trifluoroacetate salt], for which the half-maximal inhibitory concentration (IC50) at Aurora B and at human PLK4 was under 100 nM each time.

For `CN1CCN(c2ccc(/C=C/c3n[nH]c4cc([C@@H]5C[C@@]56C(=O)N(C)c5ccccc56)ccc34)cn2)CC1` [Example A110, (1R,2S)-1′-methyl-2-(3-((E)-2-(6-(4-methylpiperazin-1-yl)pyridin-3-yl)vinyl)-1H-indazol-6-yl)spiro[cyclopropane-1,3′-indolin]-2′-one bis(2,2,2-trifluoro acetate)], the half-inhibitory concentration (IC50) at Aurora B and at human PLK4 was under 100 nM throughout.

`Cc1ccc2c(c1)[C@]1(C[C@H]1c1ccc3c(-c4ccc(N5CCN(C)CC5)cc4)n[nH]c3c1)C(=O)N2` (relative stereo) [Example A173, (1R*,2S)-5′-methyl-2-(3-(4-(4-methylpiperazin-1-yl)phenyl)-1H-indazol-6-yl)spiro[cyclopropane-1,3′-indolin]-2′-one 2,2,2-trifluoroacetate]: the IC50 on Aurora B and at human PLK4 was under 100 nM throughout.

For `COc1ccc2c(c1)[C@]1(C[C@H]1c1ccc3c(I)n[nH]c3c1)C(=O)N2` [Example A7, (1R,2S)-2-(3-iodo-1H-indazol-6-yl)-5′-methoxyspiro[cyclopropane-1,3′-indolin]-2′-one], the half-inhibitory concentration (IC50) was 100 to 1000 nM on Aurora B and under 100 nM at human PLK4.

In the case of `COc1ccc2c(c1)[C@]1(C[C@H]1c1ccc3c(/C=C/c4ccc(CN5[C@H](C)CCC[C@@H]5C)cc4)n[nH]c3c1)C(=O)N2` [Example A203, (1R,2S)-(E)-2-(3-(4-((cis-2,6-dimethylpiperidin-1-yl)methyl)styryl)-1H-indazol-6-yl)-5′-methoxyspiro[cyclopropane-1,3′-indolin]-2′-one 2,2,2-trifluoroacetate], the IC50 at Aurora B and at human PLK4 was under 100 nM throughout.

With `COc1ccc2c(c1)[C@]1(C[C@H]1c1ccc3c(/C=C/c4csc(CN5CCOCC5)c4)n[nH]c3c1)C(=O)N2` [Example A183, (1R,2S)-5′-methoxy-2-(3-((E)-2-(5-(morpholinomethyl)thiophen-3-yl)vinyl)-1H-indazol-6-yl)spiro[cyclopropane-1,3′-indolin]-2′-one 2,2,2-trifluoroacetate], the IC50 on Aurora B and on human PLK4 was under 100 nM throughout.

Take `C[C@@H]1CCC[C@H](C)N1Cc1ccc(/C=C/c2n[nH]c3cc([C@@H]4C[C@@]45C(=O)Nc4ccccc45)ccc23)cc1` [Example A201, (1R,2S)-(E)-2-(3-(4-((cis-2,6-dimethylpiperidin-1-yl)methyl)styryl)-1H-indazol-6-yl)spiro[cyclopropane-1,3′-indolin]-2′-one 2,2,2-trifluoroacetate]: the IC50 on Aurora B and on human PLK4 was under 100 nM throughout.

Take `COc1ccc2c(c1)[C@]1(C[C@H]1c1ccc3c(C#Cc4cccnc4)n[nH]c3c1)C(=O)N2` (relative stereo) [Example A52, (1R*,2S*)- and (1R*,2S*)-5′-methoxy-2-(3-(pyridin-3-ethynyl)-1H-indazol-6-yl)spiro[cyclopropane-1,3′-indolin]-2′-one]: the half-inhibitory concentration (IC50) at Aurora B and at human PLK4 was under 100 nM in each case.

As to `COc1ccc2c(c1)[C@]1(C[C@H]1c1ccc3c(-c4ccc(N5CC[C@@H](N(C)C)C5)cc4)n[nH]c3c1)C(=O)N2` [Example A127, (1R,2S)-2-(3-(4-((R)-3-(dimethylamino)pyrrolidin-1-yl)phenyl)-1H-indazol-6-yl)-5′-methoxyspiro[cyclopropane-1,3′-indolin]-2′-one 2,2,2-trifluoroacetate], the IC50 at Aurora B and at human PLK4 was under 100 nM each time.

Turning to `COc1ccc2c(c1)[C@]1(C[C@H]1c1ccc3c(/C=C/c4csc(CN(C)C)c4)n[nH]c3c1)C(=O)N2` (relative stereo) [Example A181, (1R,2S)-2-(3-((E)-2-(5-((dimethylamino)methyl)thiophen-3-yl)vinyl-1H-indazol-6-yl)-5′-methoxyspiro[cyclopropane-1,3′-indolin]-2′-one 2,2,2-trifluoro acetate], the IC50 at Aurora B and at human PLK4 was under 100 nM throughout.

Consider `CN1CCN(c2ccc(-c3n[nH]c4cc([C@@H]5C[C@@]56C(=O)N(C)c5ccccc56)ccc34)cn2)CC1` (relative stereo) [Example A93, (1R*,2S*)-1′-methyl-2-(3-(6-(4-methylpiperazin-1-yl)pyridin-3-yl)-1H-indazol-6-yl)spiro[cyclopropane-1,3′-indolin]-2′-one bis(2,2,2-trifluoroacetate)], for which the IC50 at Aurora B and on human PLK4 was under 100 nM throughout.

For the compound `CN(C)Cc1ccc(/C=C/c2n[nH]c3cc([C@@H]4C[C@@]45C(=O)N(CC(N)=O)c4ccccc45)ccc23)cc1` (relative stereo) [Example A160, 2-((1R*,2S*)-(E)-2-(3-(4-((dimethylamino)methyl)styryl)-1H-indazol-6-yl)-2′-oxospiro[cyclopropane-1,3′-indoline]-1′-yl)acetamide 2,2,2-trifluoroacetate], the IC50 at Aurora B and on human PLK4 was under 100 nM in each case.

Turning to `O=C1Nc2ccccc2[C@]12C[C@H]2c1ccc2c(/C=C/c3ccc(OCCN4CCOCC4)cc3)n[nH]c2c1` [Example A204, (1R,2S)-(E)-2-(3-(4-(2-morpholinoethoxy)styryl)-1H-indazol-6-yl)spiro[cyclopropane-1,3′-indolin]-2′-one 2,2,2-trifluoroacetate], the IC50 at Aurora B and on human PLK4 was under 100 nM each time.

`COc1ccc2c(c1)[C@]1(C[C@H]1c1ccc3c(-c4cccc(CO)c4)n[nH]c3c1)C(=O)N2` (relative stereo) [Example A43, (1R*,2S*)-2-(3-(3-(hydroxymethyl)phenyl)-1H-indazol-6-yl)-5′-methoxy spiro[cyclopropane-1,3′-indolin]-2′-one 2,2,2-trifluoroacetate]: the IC50 at Aurora B and at human PLK4 was under 100 nM each time.

Turning to `COc1ccc2c(c1)[C@]1(C[C@H]1c1ccc3c(-c4ccc(OCCn5ccnc5)cc4)n[nH]c3c1)C(=O)N2` [Example A108, (1R,2S)-2-(3-(4-(2-(1H-imidazol-1-yl)ethoxy)phenyl)-1H-indazol-6-yl)-5′-methoxyspiro[cyclopropane-1,3′-indolin]-2′-one 2,2,2-trifluoroacetate], the IC50 on Aurora B and at human PLK4 was under 100 nM in each case.

`COc1ccc2c(c1)[C@]1(C[C@H]1c1ccc3c(/C=C/c4ccc(N5CCN(C)CC5)cc4)n[nH]c3c1)C(=O)N2` (relative stereo) [Example A174, (1R*,2S*)-(E)-5′-methoxy-2-(3-(4-(4-methylpiperazin-1-yl)styryl)-1H-indazol-6-yl)spiro[cyclopropane-1,3′-indolin]-2′-one 2,2,2-trifluoroacetate]: the IC50 at Aurora B and at human PLK4 was under 100 nM throughout.

For the compound `O=C1Nc2ccccc2[C@]12C[C@H]2c1ccc2c(/C=C/c3ccc(CN4CCOCC4)c(F)c3)n[nH]c2c1` [Example A200, (1R,2S)-(E)-2-(3-(3-fluoro-4-(morpholinomethyl)styryl)-1H-indazol-6-yl)spiro[cyclopropane-1,3′-indolin]-2′-one 2,2,2-trifluoroacetate], the IC50 on Aurora B and on human PLK4 was under 100 nM each time.

With `CN1C(=O)[C@@]2(C[C@H]2c2ccc3c(/C=C/c4ccc(CN5CCCCC5)cc4)n[nH]c3c2)c2ccccc21` [Example A94, (1R,2S)-(E)-1′-methyl-2-(3-(4-(piperidin-1-ylmethyl)styryl)-1H-indazol-6-yl)spiro[cyclopropane-1,3′-indolin]-2′-one hydrochloride], the IC50 at Aurora B and on human PLK4 was under 100 nM each time.
